# Patent US20260317304A1, “TEAD INHIBITORS AND METHODS OF USE” (Sporos BioDiscovery, Inc., priority 2022, published 2026)
# Columns and labels:
# TEAD1 = TEAD1 (Homo sapiens, UniProt P28347); test: TEAD thermal shift assay (TSA); assay type: binding
# From the text: (§1) Thermal shift assay (TSA) is a biophysical method to evaluate stability of proteins with change in temperature. The assay measures thermal denaturation temperature in varying conditions such as different drug concentration. For this example, fluorogenic dye was used that bind to unfolded proteins. SYPRO Orange binds non-specifically to hydrophobic surfaces, and water strongly quenches its fluorescence. When the protein unfolds, the exposed hydrophobic surfaces bind the dye, resulting in an increase in fluorescence by excluding water. Detergent micelles also bind the dye and increase background noise dramatically. Binding of small molecules to proteins leads to a stabilization against to thermal denaturation with the degree of thermal stabilization proportional to the strength of binding.
# (§2) The study described in this example investigated the change in melting temperature (ΔTm) of TEAD isoforms 1-4 when treated with TEAD inhibitors.
# (§3) Tris-HCL was dissolved in 5 mL of Cell culture grade water and allowed to dissolve completely. The pH was adjusted to 8 using NaOH. Additional assay buffer components were added in the order listed above. The buffer was mixed slowly.
# (§4) Assay buffer was prepared according to the procedures outlined above and dispensed into test wells. Spyro orange was added to a concentration of 5× in the assay buffer, followed by test compound stock solution which was added to a concentration of 10 μM or 30 μM in the assay buffer.
# (§5) The melt cycle was performed in Bio-RAD PCR instrument from 20-95° C. with ramp rate of 1° C./min.
# TEAD2 = TEAD2 (Homo sapiens, UniProt Q15562); test: TEAD thermal shift assay (TSA); assay type: binding
# From the text: as §1, §2, §3, §4, §5
# TEAD3 = TEAD3 (Homo sapiens, UniProt Q99594); test: TEAD thermal shift assay (TSA); assay type: binding
# From the text: as §1, §2, §3, §4, §5
# TEAD4 = TEAD4 (Homo sapiens, UniProt Q15561); test: TEAD thermal shift assay (TSA); assay type: binding
# From the text: as §1, §2, §3, §4, §5
# TEAD isoforms 1-4 = test: TEAD thermal shift assay (TSA), outcome in words; assay type: binding, human
# From the text: as §1, §2, §3, §4, §5
# MSTO-211H xenograft = test: Mouse xenograft MSTO-211H tumors compared to prior art TEAD inhibitor; assay type: in vivo, BALB/c nude mice; conditions: 7 days of treatment, PO BID, 12.5 mg/kg Compound 5
# Protocol: This study evaluated the in vivo anti-tumor efficacy of test compounds in BALB/c nude mice for treatment of MSTO-211H xenograft of lung cancer.
# The MSTO-211H tumor cells were maintained in vitro in RPMI 1640 medium supplemented with 10% Fetal bovine serum and 1% Antibiotic-Antimycotic at 37° C. in an atmosphere of 5% CO2 in air. The tumor cells were routinely subcultured twice weekly by trypsin-EDTA. The cells growing in an exponential growth phase were harvested and counted for tumor inoculation.
# Each mouse was inoculated subcutaneously at the right flank with MSTO-211H tumor cells (10×10^6+50% matrigel/0.2 mL) for tumor development. Test subjects received vehicle (e.g., 0.5% CMC-Na+1% Tween80) beginning on day 7 after cell inoculation. […]
# The major endpoint was to determine if the tumor growth could be delayed. Tumor size was measured twice a week in two dimensions using a caliper, and the volume was expressed in mm^3 using the formula: V=0.5 a×b^2 where a and b are the long and short diameters of the tumor, respectively. […]
# Summary statistics, including mean and the standard error of the mean (SEM), were calculated for the tumor volume of each group at each time point. […]
# One-tailed T test was performed to compare tumor volumes between two groups. All data were analyzed using GraphPad Prism 6.0. p<0.05 was considered to be statistically significant.
# [1] = Ratio of Protein to Compound 1:1
# [2] = Ratio of Protein to Compound 1:3
# Chain of TEAD2 (Q15562 whole entry): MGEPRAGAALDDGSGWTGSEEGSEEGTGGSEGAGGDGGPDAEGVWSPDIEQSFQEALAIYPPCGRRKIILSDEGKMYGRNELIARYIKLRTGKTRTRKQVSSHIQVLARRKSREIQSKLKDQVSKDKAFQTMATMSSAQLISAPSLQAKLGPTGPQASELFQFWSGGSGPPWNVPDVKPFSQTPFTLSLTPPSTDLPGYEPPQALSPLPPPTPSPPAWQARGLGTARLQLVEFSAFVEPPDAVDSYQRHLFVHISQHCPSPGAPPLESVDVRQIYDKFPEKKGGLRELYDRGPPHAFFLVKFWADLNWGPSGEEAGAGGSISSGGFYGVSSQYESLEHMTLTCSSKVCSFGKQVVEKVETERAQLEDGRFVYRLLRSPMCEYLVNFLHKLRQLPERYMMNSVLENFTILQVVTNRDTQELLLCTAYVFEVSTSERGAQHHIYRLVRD
# Chain of TEAD1 (P28347 whole entry): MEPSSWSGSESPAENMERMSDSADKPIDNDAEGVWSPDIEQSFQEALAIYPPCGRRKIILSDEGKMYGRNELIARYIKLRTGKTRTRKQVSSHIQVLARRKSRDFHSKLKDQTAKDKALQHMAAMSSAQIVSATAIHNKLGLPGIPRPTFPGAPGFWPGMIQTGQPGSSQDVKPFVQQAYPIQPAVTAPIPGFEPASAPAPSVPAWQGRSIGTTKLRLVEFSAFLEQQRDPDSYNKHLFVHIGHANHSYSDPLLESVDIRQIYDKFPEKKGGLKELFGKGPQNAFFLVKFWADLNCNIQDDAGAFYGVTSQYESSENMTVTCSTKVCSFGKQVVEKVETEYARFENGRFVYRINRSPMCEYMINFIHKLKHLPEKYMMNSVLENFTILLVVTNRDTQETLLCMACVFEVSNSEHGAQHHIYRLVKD
# Chain of TEAD4 (Q15561 whole entry): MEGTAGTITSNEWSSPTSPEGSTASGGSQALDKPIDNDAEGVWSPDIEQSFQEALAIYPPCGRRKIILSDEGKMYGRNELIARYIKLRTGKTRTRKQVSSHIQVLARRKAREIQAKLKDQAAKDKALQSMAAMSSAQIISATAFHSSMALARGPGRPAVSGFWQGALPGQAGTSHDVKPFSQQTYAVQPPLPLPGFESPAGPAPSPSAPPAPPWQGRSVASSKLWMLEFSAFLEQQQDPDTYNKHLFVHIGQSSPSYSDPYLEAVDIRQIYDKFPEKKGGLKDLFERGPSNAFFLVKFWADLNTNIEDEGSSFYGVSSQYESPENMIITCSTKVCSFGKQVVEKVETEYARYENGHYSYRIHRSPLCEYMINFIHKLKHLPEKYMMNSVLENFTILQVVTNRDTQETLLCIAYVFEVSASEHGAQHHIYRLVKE
# Chain of TEAD3 (Q99594 whole entry): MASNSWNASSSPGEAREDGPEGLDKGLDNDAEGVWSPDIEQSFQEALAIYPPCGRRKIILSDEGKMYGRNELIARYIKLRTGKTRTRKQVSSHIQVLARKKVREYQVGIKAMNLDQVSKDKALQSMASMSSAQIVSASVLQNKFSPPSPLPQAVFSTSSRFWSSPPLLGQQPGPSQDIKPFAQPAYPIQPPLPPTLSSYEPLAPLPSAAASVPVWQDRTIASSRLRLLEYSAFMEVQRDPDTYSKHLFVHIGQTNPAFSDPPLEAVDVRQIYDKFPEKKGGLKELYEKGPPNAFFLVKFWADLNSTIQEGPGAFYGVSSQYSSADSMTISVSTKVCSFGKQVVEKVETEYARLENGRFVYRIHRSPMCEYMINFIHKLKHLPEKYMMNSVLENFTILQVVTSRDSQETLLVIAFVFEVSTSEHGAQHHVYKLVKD
compound,measurement,setting,value
"Cn1cnc(-c2cc([C@@]3(C)CCNC3=O)ccc2Nc2ccc(C(F)(F)F)cc2)c1 (single isomer, unassigned) [Compound 5, 3-methyl-3-(3-(1-methyl-1H-imidazol-4-yl)-4-((4-(trifluoromethyl)phenyl)amino)phenyl)pyrrolidin-2-one]",TEAD1 ΔTm,TEAD1; [1],7 °C
same,TEAD1 ΔTm,TEAD1; [2],10 °C
same,TEAD2 ΔTm,TEAD2; [1],8.5 °C
same,TEAD2 ΔTm,TEAD2; [2],11.5 °C
same,TEAD3 ΔTm,TEAD3; [1],0 °C
same,TEAD3 ΔTm,TEAD3; [2],0 °C
same,TEAD4 ΔTm,TEAD4; [1],1.5 °C
same,TEAD4 ΔTm,TEAD4; [2],7 °C
same,thermal shift / TEAD binding (in words),TEAD isoforms 1-4,strong TEAD1 and TEAD4 binding
same,change in tumor volume (in words),MSTO-211H xenograft,tumor reduction was observed
